Assay results from ChEMBL document CHEMBL3621076, “Synthesis and Characterization in Vitro and in Vivo of (l)-(Trimethylsilyl)alanine Containing Neurotensin Analogues” (J Med Chem, 2015).
Active and inactive are the calls of the source. No cut-off for these calls is given here. Square brackets hold non-standard residues; d marks the D form. Peptide text beside a SMILES is read from it. Pro(4-sila,4,4-Me2) = C[Si]1(C)CN[C@H](C(=O)O)C1; Ala(SiMe3) = C[Si](C)(C)C[C@H](N)C(=O)O; NMeR = CN[C@@H](CCCNC(=N)N)C(=O)O; hLys = NCCCCC[C@H](N)C(=O)O

What was measured:
[1] = Half life in rat plasma at 0.156 mM by UPLC/MS method; format: ADME, cell-free
[2] = system: Rattus norvegicus; assay: Reduction in arterial blood pressure in Sprague-Dawley rat at 0.1 mg/kg, iv measured over 4 mins; format: functional
[3] = target: T1, Neurotensin receptor type 1 (Homo sapiens, UniProt P30989); assay: Displacement of [125I]-Tyr3-NT from human NTS1 receptor expressed in CHOK1 cell membranes incubated for 30 mins by gamma-counting based competitive radioligand binding assay; design: species or system CHO-K1
[4] = target: Neurotensin receptor type 2 (Homo sapiens, UniProt O95665); assay: Displacement of [125I]-Tyr3-NT from human NTS2 receptor expressed in 1321N1 cell membranes incubated for 30 mins by gamma-counting based competitive radioligand binding assay
[5] = system: Rattus norvegicus; assay: Reduction in arterial blood pressure in Sprague-Dawley rat assessed as hypotensive effect during pressor phase returning to baseline saline values within <1 mins at 0.1 mg/kg, iv measured over 4 mins; format: functional, organism-based
[6] = system: Rattus norvegicus; assay: Analgesic activity in Sprague-Dawley rat assessed as maximal possible effect for reduction in sensitivity to heat stimulation at 30 ug/kg, it measured every 10 mins for up to 1 hr post dose by tail immersion test; format: functional; design: scale not given: the % may be the effect or the level left
[7] = target: T1, Neurotensin receptor type 1; assay: Agonist activity at human NTS1 receptor expressed in CHOK1 cells co-expressing hNTS1-GFP10/RlucII-beta-arrestin 2 assessed as beta-arrestin2 recruitment incubated for 15 mins by BRET assay; format: cell-based, CHO-K1
[8] = target: T1, Neurotensin receptor type 1; assay: Agonist activity at human NTS1 receptor expressed in CHOK1 cells co-expressing Galphaq-RlucII(121)/Gbeta1/GFP10-Ggamma1 assessed as Galpha-q stimulation incubated for 15 mins by BRET assay; format: cell-based, CHO-K1
[9] = target: Neurotensin receptor type 1 (Rattus norvegicus, UniProt P20789); assay: Agonist activity at […] NTS1 in Sprague-Dawley rat ileum assessed as inhibition of carbachol-induced contraction; format: tissue-based
[10] = system: Rattus norvegicus; assay: Analgesic activity in Sprague-Dawley rat assessed as increase in response latency to thermal noxious stimulus at 30 ug/kg, it measured every 10 mins for up to 1 hr post dose by tail immersion test; format: functional, organism-based
[11] = system: Rattus norvegicus; assay: Reduction in arterial blood pressure in Sprague-Dawley rat assessed as sustained and pronounced hypotensive phase at 0.1 mg/kg, iv measured over 4 mins; format: functional, organism-based
[12] = system: Rattus norvegicus; assay: Analgesic activity in Sprague-Dawley rat model of formalin-induced persistent tonic pain model assessed as reduction in weighted pain score during inflammatory phase at 30 ug/kg, it by formalin test; format: functional, organism-based
[13] = system: Rattus norvegicus; assay: Analgesic activity in Sprague-Dawley rat model of formalin-induced persistent tonic pain model assessed as reduction in weighted pain score during acute phase at 30 ug/kg, it by formalin test; format: functional, organism-based
[14] = species: Rattus norvegicus; assay: Analgesic activity in rat by tail flick test; format: functional

Neurotensin receptor type 2, sequence (O95665 whole entry): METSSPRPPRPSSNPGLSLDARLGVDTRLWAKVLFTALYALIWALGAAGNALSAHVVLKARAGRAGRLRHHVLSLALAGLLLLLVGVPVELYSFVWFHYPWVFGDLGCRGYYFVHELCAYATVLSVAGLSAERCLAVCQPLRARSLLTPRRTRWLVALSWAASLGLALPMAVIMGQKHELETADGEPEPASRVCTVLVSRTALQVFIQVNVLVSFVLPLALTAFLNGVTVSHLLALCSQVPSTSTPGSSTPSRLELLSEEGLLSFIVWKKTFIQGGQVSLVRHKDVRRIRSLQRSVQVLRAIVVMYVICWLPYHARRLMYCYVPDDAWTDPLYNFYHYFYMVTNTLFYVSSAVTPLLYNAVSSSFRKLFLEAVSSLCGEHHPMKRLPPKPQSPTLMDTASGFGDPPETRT
Neurotensin receptor type 1 (Rattus norvegicus, UniProt P20789), sequence (P20789 whole entry): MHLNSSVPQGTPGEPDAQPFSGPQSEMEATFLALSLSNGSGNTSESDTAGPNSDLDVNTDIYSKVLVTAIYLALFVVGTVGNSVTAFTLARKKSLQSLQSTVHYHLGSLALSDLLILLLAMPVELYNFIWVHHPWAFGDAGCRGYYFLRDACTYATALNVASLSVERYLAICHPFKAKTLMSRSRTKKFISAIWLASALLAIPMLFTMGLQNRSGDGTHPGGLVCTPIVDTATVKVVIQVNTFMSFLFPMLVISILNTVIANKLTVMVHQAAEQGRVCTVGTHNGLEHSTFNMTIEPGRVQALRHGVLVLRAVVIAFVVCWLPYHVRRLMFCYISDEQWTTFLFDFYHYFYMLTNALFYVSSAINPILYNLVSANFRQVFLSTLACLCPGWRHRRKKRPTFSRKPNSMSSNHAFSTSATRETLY
T1 sequence (P30989 whole entry): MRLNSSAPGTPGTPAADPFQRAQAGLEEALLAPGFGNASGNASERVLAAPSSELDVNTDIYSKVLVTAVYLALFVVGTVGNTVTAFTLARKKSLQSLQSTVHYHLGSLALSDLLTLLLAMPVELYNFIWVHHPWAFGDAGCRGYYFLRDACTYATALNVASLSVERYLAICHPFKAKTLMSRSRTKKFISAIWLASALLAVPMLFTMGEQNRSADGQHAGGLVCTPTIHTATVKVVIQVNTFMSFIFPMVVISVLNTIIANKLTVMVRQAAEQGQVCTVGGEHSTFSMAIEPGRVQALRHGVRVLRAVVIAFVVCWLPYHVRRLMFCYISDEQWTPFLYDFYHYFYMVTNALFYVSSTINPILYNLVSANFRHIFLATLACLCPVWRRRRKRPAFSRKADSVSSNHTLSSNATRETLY

| SMILES | half-life at 156 µM [1] [min] | IC50 [3] [nM] | IC50 [4] [nM] | EC50 [7] [nM] | EC50 [8] [nM] | EC50 [9] [nM] | ED50 [14] [nmol] | also measured |
| --- | --- | --- | --- | --- | --- | --- | --- | --- |
| CC[C@H](C)[C@H](NC(=O)[C@H](Cc1ccc(O)cc1)NC(=O)[C@@H]1CCCN1C(=O)[C@H](CCCNC(=N)N)NC(=O)[C@@H](N)CCCNC(=N)N)C(=O)N[C@@H](CC(C)C)C(=O)O | 1.95 | – | – | – | – | – | – | Activity [2]: 30 mmHg |
| CC[C@H](C)[C@H](NC(=O)[C@H](Cc1ccc(O)cc1)NC(=O)[C@@H]1CCCN1C(=O)[C@H](CCCCN)NC(=O)[C@@H](N)CCCCN)C(=O)N[C@@H](C[Si](C)(C)C)C(=O)O (H-KKPYI[Ala(SiMe3)]-OH) | 1.33 | 0.02 | 0.26 | 1.49 | 1.51 | 1.41 | – | Activity [5]: Active; Activity [6]: 40%; Activity [10]: Active; Activity [2]: Active; Activity [11]: Active; Activity [12]: Active; Activity [13]: Active |
| CC(C)C[C@H](NC(=O)[C@H](C[Si](C)(C)C)NC(=O)[C@H](Cc1ccc(O)cc1)NC(=O)[C@@H]1CCCN1C(=O)[C@H](CCCCN)NC(=O)[C@@H](N)CCCCN)C(=O)O (H-KKPY[Ala(SiMe3)]L-OH) | 2.4 | 93.8 | 405 | 26.6 | 169 | > 10000 | – | – |
| C[Si](C)(C)C[C@H](NC(=O)[C@H](C[Si](C)(C)C)NC(=O)[C@H](Cc1ccc(O)cc1)NC(=O)[C@@H]1CCCN1C(=O)[C@H](CCCCN)NC(=O)[C@@H](N)CCCCN)C(=O)O (H-KKPY[Ala(SiMe3)][Ala(SiMe3)]-OH) | 2.83 | 15.4 | 28.9 | 0.34 | 11 | 22.5 | – | – |
| CN[C@@H](CCCNC(=N)N)C(=O)N[C@@H](CCCCN)C(=O)N1CCC[C@H]1C(=O)N[C@@H](Cc1ccc(O)cc1)C(=O)N[C@@H](C[Si](C)(C)C)C(=O)N[C@@H](CC(C)C)C(=O)O (H-[NMeR]KPY[Ala(SiMe3)]L-OH) | > 120 | 246 | 29.7 | 4.19 | 204 | > 10000 | – | – |
| CC(C)C[C@H](NC(=O)[C@H](C[Si](C)(C)C)NC(=O)[C@H](Cc1ccc(O)cc1)NC(=O)[C@@H]1C[Si](C)(C)CN1C(=O)[C@H](CCCCN)NC(=O)[C@@H](N)CCCCCN)C(=O)O (H-[hLys]K[Pro(4-sila,4,4-Me2)]Y[Ala(SiMe3)]L-OH) | 3.52 | 968 | 1420 | > 1000 | > 10000 | > 10000 | – | – |
| CO[C@@]12CC[C@@]3(C[C@@H]1[C@](C)(O)C(C)(C)C)[C@H]1Cc4ccc(O)c5c4[C@@]3(CCN1CC1CC1)[C@H]2O5 [BUPRENORPHINE] | – | – | – | – | – | – | 4 | – |
| CN1CC[C@]23c4c5ccc(O)c4O[C@H]2C(=O)CC[C@H]3[C@H]1C5 [HYDROMORPHONE] | – | – | – | – | – | – | 78 | – |
| CN1CC[C@]23c4c5ccc(O)c4O[C@H]2[C@@H](O)C=C[C@H]3[C@H]1C5 [MORPHINE] | – | – | – | – | – | – | 7.4 | – |
